Results from patent US9493460B2, “Diimide compounds” (UCL BUSINESS PLC, priority 2013, dated 2016).

Assays:
[1] = test system: panel of cancer cell lines; experiment: SRB assay, panel of cancer cell lines and normal fibroblast line; assay type: cell-based, human; settings: Homo sapiens, Fibroblast, 96 h exposure, read-out: IC50 values across the cell line panel
Method: (§1) Human cancer cell lines, MCF7 (breast), A549 (lung), Mia-PaCa2, PANC1 and HPAC (pancreatic), RCC4 and 786-0 renal, and the somatic human cell line WI-38 (lung fibroblast) were purchased from ATCC. Cell lines were maintained in appropriate medium supplemented with 10% foetal bovine serum (Invitrogen, UK), 2 mM L-glutamine (Invitrogen, Netherlands), and other components as specified by the suppliers. Cell lines were maintained at 37° C., 5% CO2 and routinely passaged. Drugs were dissolved in DMSO and filtered through 0.22 μm pore-size filter units before addition to cell line appropriate media. Cellular growth inhibition was measured using the sulforhodamine B (SRB) assay in 96 well plates as described previously.^1,2 Fifty percent inhibitory concentrations (IC50) were determined by taking the mean absorbance at 540 nm for each drug concentration expressed as a percentage of the absorbance of untreated control wells.
(§2) The anti-proliferative activity of the group of nine ND derivatives was assessed using the SRB assay following 96 h exposure to 2-fold serial dilutions of each compound (Table 2) in a panel of cancer cell lines together with a normal fibroblast line. […] In contrast the morpholine compounds all show sub-μM anti-proliferative activity in at least some of the cancer cell lines used and the two compounds 3d, 3h with n=3 —(CH2)n— linkers to the morpholine groups, show particularly potent activity in the Mia-PaCa2 and PANC1 pancreatic carcinoma and A549 lung adenocarcinoma cell lines (IC50 values of 10-20 nM).

786-O (renal) cells = experiment: SRB growth inhibition assay, 96 hr exposure, 786-O; assay type: cell-based, human; settings: versus other lines of the panel
Method: as §1, §2
(§3) Next a series of structural isomers were tested.

[2] = test system: human telomeric G-quadruplex DNA (F21T); experiment: FRET melting assay, human telomeric quadruplex; assay type: binding; settings: FRET melting
From the text: The ability of the naphthalene diimide compounds to stabilize DNA sequences was investigated using a fluorescence resonance energy transfer (FRET) assay modified to be used as a high-throughput screen in a 96-well format. Several quadruplex sequences were studied (the human telomeric G-quadruplex DNA sequence 5′-FAM-d(GGG[TTAGGG]3)-TAMRA-3′ and the duplex sequence 5′-FAM-dTATAGCTATA-HEG-TATAGCTATA-TAMRA-3′ (HEG linker: [(—CH2—CH2—O—)6])), as well as two overlapping sequences from the HSP90 promoter region (HSP90a and HSP90b):
The labelled oligonucleotides have attached to them the donor fluorophore FAM: 6-carboxyfluorescein and the acceptor fluorophore TAMRA: 6-carboxytetramethylrhodamine. The FRET probe sequences were diluted from stock to the correct concentration (400 nM) in a 60 mM potassium cacodylate buffer (pH 7.4) and then annealed by heating to 85° C. for 10 min, followed by cooling to room temperature in the heating block. The compound was stored as a 10 mM stock solution in DMSO; final solutions (at 2×concentration) were prepared using 10 mM HCl in the initial 1:10 dilution, after which 60 mM potassium cacodylate buffer (pH 7.4) was used in all subsequent steps. The maximum HCl concentration in the reaction volume (at a ligand concentration of 20 μM) is thus 200 μM, well within the range of the buffer used. Relevant controls were also performed to check for interference with the assay. 96-Well plates (MJ Research, Waltham, Mass.) were prepared by aliquoting 50 μl of the annealed DNA into each well, followed by 50 μl of the compound solutions. Measurements were made on a DNA Engine Opticon (MJ Research) with excitation at 450-495 nm and detection at 515-545 nm. Fluorescence readings were taken at intervals of 0.5° C. in the range 30-100° C., with a constant temperature being maintained for 30 s prior to each reading to ensure a stable value. Final analysis of the data was carried out using a script written in the program Origin 7.0 (OriginLab Corp., Northampton, Mass.). The advanced curve-fitting function in Origin 7.0 was used for calculation of ΔTm values. All determinations were performed in triplicate or better. Esds in ΔTm are ±0.1° C.
The ability of compounds 3a-h to stabilize a human telomeric quadruplex was assessed by a high-throughput FRET (Fluorescence Resonance Energy Transfer) melting technique. […] None of the furan tetrahydrofuran, pyranose or acyclic ether compounds has any effect on quadruplex or duplex stability.
The T-loop sequence represents duplex DNA.

A549 (lung) cells = experiment: SRB growth inhibition assay, 96 hr exposure, A549; assay type: cell-based, human; settings: Homo sapiens, A549, 96 h exposure
Method: as §1, §2, §3

[3] = test system: MiaPaCa2 (pancreatic) cells; experiment: SRB growth inhibition assay, MiaPaCa2; assay type: cell-based, human
Method: as §1, §2
Dose-response curves were used to guide the choice of compound concentration and time-points for the array experiments (FIG. 2a). […] To explore this response continuum the transcriptional signature of cells exposed for 24 h to 20 nM, 40 nM, 80 nM concentrations of 3d, or solvent alone as control, was analysed as described in Materials and Methods.
as §3

telomerase = experiment: TRAP-LIG cellular telomerase activity assay; assay type: cell-based, human; settings: at the doses relevant to the IC50 values
Method: FIG. 1. Gel showing telomerase activity in MIA-Pa-Ca-2 cells treated with compound 3h after seven days of treatment. Lane 1; untreated cells, lanes 2-4; cells treated increasing concentrations of 3h. Telomerase activity was assessed using the TRAP-LIG assay as described in Materials and Methods. Compound concentrations are indicated. Neg; untreated cells, Pos; positive control. Neg: negative control with telomerase but no ligand.
Telomerase activity was determined using the TRAP-LIG assay, a modified telomere repeat amplification protocol that ensures that there is no carry-over of ligand into the second PCR step of the assay. Briefly, 1 μg of protein from untreated and treated cells were incubated with TS forward primer (0.1 μg of 5′-AAT CCG TCG AGC AGA GTT-3′) at 30° C. for 10 min to allow the initial elongation to take place. Elongated products were purified using the QIAquick nucleotide purification kit (Qiagen) according to the manufacturer's instructions. Eluted samples were freeze-dried and re-dissolved in PCR grade water. Re-dissolved PCR products were subjected to amplification in master mix containing ACX reverse primer (1 μM, 5′-GCG CGG [CTTACC]3 CTA ACC-3′), TS forward primer (0.1 μg), TRAP buffer, BSA (5 μg), 0.5 mM dNTPs, and 2U RedHot TAQ polymerase (ABgene, U.K.) for 35 cycles of 94° C. for 30 s, 61° C. for 1 min, and at 72° C. for 1 min. […]

Panc1 (pancreatic) cells = experiment: SRB growth inhibition assay, 96 hr exposure, Panc1; assay type: cell-based, human; settings: Homo sapiens, PANC-1, 96 h exposure
Method: as §1, §2, §3

[4] = test system: 83 human genes involved in DNA damage signaling responses in Mia-PaCa2 cells; experiment: qPCR array, DNA damage signaling response genes; assay type: cell-based; settings: Mia-PaCa2 cells, data not shown
Method: Following compound exposure, cells were washed twice in PBS, harvested by trypsinisation, collected by centrifugation (300 g, 5 min, 4° C.) and re-suspended in RLT buffer (Qiagen). Samples were homogenised using QIAshredder spin columns and stored at −80° C. prior to RNA extraction. Three biological replicates were performed on separate days.
The expression of (i) 83 key human genes involved in telomere replication and maintenance, and (ii) 83 human genes involved in DNA damage signaling responses, was assessed using PCR arrays (SABiosciences). Total RNA was extracted from approximately 1×10^7 Mia-PaCa2 cells treated for 24 h with compound 3d, using the RNeasy kit (Qiagen) with on-column DNaseI treatment to remove residual genomic DNA. The quality of the harvested RNA was confirmed by nanodrop spectroscopy and by analysis with a Human RT^2 RNA QC PCR Array. First-strand cDNA synthesis was performed with the RT^2 first strand kit and qPCR was carried out using the RT^2 qPCR master mix (Qiagen) using 0.5 μg total RNA per array plate in a Stratagene MX-3000P instrument (Agilent, USA). Relative gene expression was determined by the ΔΔCT method using the web-based RT^2 Profiler™ PCR Array Data Analysis software (SABiosciences). Data were normalized to the geometric mean of five housekeeping genes (RPLP10, β-actin, B2M, GAPDH and HPRT1).
Various quadruplex-stabilising agents are known to induce pronounced DNA damage responses. We therefore next assessed the effect of 3d on the transcription of genes associated with DNA damage response and repair pathways. For these pathways the effect of a cytotoxic dosage of 3d (160 nM) on Mia-PaCa2 cells was also tested to assess the correlation between compound-induced DNA damage and cell killing. […] The latter two groups appeared to reflect a dynamic switch in the cellular response from low-level growth inhibition up to 40 nM of 3d to cytostatic then cytotoxic effects at 80 nM and 160 nM respectively.
Instead the response was dominated by genes with roles in growth arrest and more general stress responses.

Mia-PaCa2 cells = experiment: Senescence β-galactosidase staining; assay type: cell-based, human; settings: 7 days treatment
Method: FIG. 4. Micrographs showing the results of staining for evidence of cellular senescence in MiaPaCa2 cells using the β-galactosidase assay. Senescent cells are coloured blue in this procedure. Staining was performed after seven days treatments with (a) vehicle control, ×100 magnification, (b) 3.3 nM of compound 3d, ×200 magnification, (c) 6.6 nM of compound 3d, ×200 magnification, (d) 50 nM of compound 4, ×200 magnification, (e) plot of the percentage of senescent cells at the indicated concentrations of compounds 3d and 4, compared to the background senescence in this cell line (with vehicle control only). Cell counts were performed in triplicate and error bars represent estimated standard deviations.
Senescence detection and quantification experiments were carried out using the Senescence β-galactosidase staining kit (Cell Signalling Technology, MA, USA) according to the manufacturer's protocol. Briefly, 1×10^5 cells were seeded in 6-well plates in 2 ml of medium supplemented with the test compound and incubated for 24 h. Cells were washed (2 ml PBS), fixed (2% formaldehyde and 2% glutaraldehyde in PBS, 15 min, room temperature) and washed (2×2 ml PBS) before staining overnight. Senescent cells, detected by their blue pigmentation, were counted using a light microscope.
CDKN1A encodes the cyclin-dependent kinase p21WAF1 that induces replicative senescence, which is a well-studied consequence of telomerase inhibition and telomere maintenance disruption. […] Compounds 3b and 3d behaved in a similar manner to each other, with concentrations of 3-4 nM being sufficient to result in ˜50-60% of cells becoming senescent after this time-course.

CN1CCN(CCCNc2cc3c4c(c(NCCCN5CCN(C)CC5)cc5c4c2C(=O)N(CC2CCOCC2)C5=O)C(=O)N(CC2CCOCC2)C3=O)CC1 [Compound 3c, 4,9-bis((3-(4-methylpiperazin-1-yl)propyl)amino)-2,7-bis((tetrahydro-2H-pyran-4-yl)methyl)benzo[lmn][3,8]phenanthroline-1,3,6,8(2H,7H)-tetraone]
IC50 [1]: 1000 to 8000 nM | selectivity for the renal carcinoma cell line 786-0 (786-O (renal) cells): up to 10 fold | telomeric quadruplex stabilization (in words) [2]: low level of quadruplex binding

CN1CCN(CCNc2cc3c4c(c(NCCN5CCN(C)CC5)cc5c4c2C(=O)N(CCCN2CCOCC2)C5=O)C(=O)N(CCCN2CCOCC2)C3=O)CC1 [Compound 3h, 4,9-bis((2-(4-methylpiperazin-1-yl)ethyl)amino)-2,7-bis(3-morpholinopropyl)benzo[lmn][3,8]phenanthroline-1,3,6,8(2H,7H)-tetraone]
IC50 (A549 (lung) cells): 10 to 20 nM | selectivity for Mia-PaCa2 compared to the normal fibroblast line WI-38 [3]: ~200 fold | IC50 ([3]; Homo sapiens, MIA PaCa-2, SRB assay, 96 h exposure, read-out: IC50 Mia-PaCa2): 10 to 20 nM | telomerase activity inhibition (telomerase): not inhibitors of telomerase activity | IC50 (Panc1 (pancreatic) cells): 10 to 20 nM | induction of γ-H2AX [4]: do not appear to induce these particular changes

CN1CCN(CCCNc2cc3c4c(c(NCCCN5CCN(C)CC5)cc5c4c2C(=O)N(CCCN2CCN(C)CC2)C5=O)C(=O)N(CCCN2CCN(C)CC2)C3=O)CC1 [Compound 4, reference compound]
induction of senescence (in words) (Mia-PaCa2 cells): strong induction of senescence
